Experimental data reported in PMC7667029, “A Targeted Computational Screen of the SWEETLEAD Database Reveals FDA-Approved Compounds with Anti-Dengue Viral Activity” (mBio, 2020).

Test system: DENV2
Experiment: DENV2-infected AGB6 mouse model (splenic titer, survival)
Format: in vivo, AGB6 mice
Settings: AGB6 mice, 15 mg/kg vandetanib twice daily, 15 mg/kg; for Splenic viral titer: 4 days postinfection; for Survival of infected mice: oral

Q: Which Splenic viral titer does the source give for `COc1cc2c(Nc3ccc(Br)cc3F)ncnc2cc1OCC1CCN(C)CC1` [Vandetanib, vandetanib] here?
A: did not affect splenic titers

Q: And the Splenic viral titer (listed as vandetanib)?
A: did not significantly impact splenic viral titer

Q: And the “Survival of infected mice” value?
A: extend survival

Q: What about the “Survival of infected mice” value (listed as vandetanib) of the same compound?
A: significantly extended survival
